Test results reported in patent US10774121B2, “Methods and compositions for treating neurodegenerative disorders and Alzheimer's Disease and improving normal memory” (The Regents of the University of California, priority 2006, dated 2020).

What was measured:
tyrosine kinase activity = assay: Tyrosine kinase ELISA on extracts of β-APP-transfected DAMI cells mixed with PS-1-transfected DAMI cells; type: cell-based, human
Method: All experiments after those in FIG. 7 (with the exception of FIG. 9a, Panel 4) were carried out with appropriately transfected DAMI cells only. Equal numbers (0.5×10^6/ml) of β-APP-transfected DAMI cells and either PS-1- or PS-2-transfected DAMI cells were mixed gently at room temperature, exactly as described (Dewji and Singer, 1998). In control experiments, DAMI cells transfected with pcDNA3 alone were substituted for the β-APP transfected cells.
At several times between 0 and 20 min after mixing, an aliquot of each cell mixture was rapidly centrifuged, the culture medium was removed, and the cell pellet was suspended in 200 μl of extraction buffer (50 mM Tris, pH 8.0/150 mM NaCl/0.5% Nonidet-P40) containing protease inhibitors (1 mM 4-(2-aminoethyl) benzene sulfonyl fluoride hydrochloride (AEBSF)/1 μg/ml antipain/0.1 μg/ml pepstatin A/0.1 μg/ml leupeptin) and the phosphatase inhibitor sodium orthovanadate (0.1 mM). The mixture was sonicated with three bursts of 20 sec duration and then centrifuged. These extract supernatants were then used for Western blot and ELISA analyses as described below.
ELISAs Protein tyrosine kinase activity was measured by an Enzyme Linked Immunosorbent Assay (ELISA) using a tyrosine kinase assay kit (Upstate Biotechnology). […]

Gαo = Gαo (Mus musculus, UniProt P18872); assay: 35S-GTPγS incorporation (G-protein activation) in β-APP-only:PS-1-only co-cultures, immunoprecipitation with Gαo antibody K-20; type: cell-based; conditions: β-APP:PS-1 co-culture, Peptide 1-80 0-3 μM
Chain of Gαo (P18872 whole entry): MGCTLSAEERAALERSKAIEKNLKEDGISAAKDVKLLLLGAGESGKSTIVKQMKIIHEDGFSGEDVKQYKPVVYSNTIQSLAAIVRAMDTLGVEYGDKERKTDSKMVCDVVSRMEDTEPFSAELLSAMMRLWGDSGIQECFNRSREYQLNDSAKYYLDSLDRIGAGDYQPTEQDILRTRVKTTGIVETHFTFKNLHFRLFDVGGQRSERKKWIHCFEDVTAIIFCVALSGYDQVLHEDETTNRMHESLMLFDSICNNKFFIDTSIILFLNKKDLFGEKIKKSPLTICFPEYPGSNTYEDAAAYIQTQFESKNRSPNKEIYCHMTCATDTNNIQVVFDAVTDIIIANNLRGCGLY
Excerpt: Two cell types were generated: ES-derived mouse cells (PS-1^−/−; PS-2^−/−) that expressed only small amounts of endogenous β-APP but no PS, were transiently transfected with cDNA for human β-APP to produce cells expressing excess human β-APP over mouse β-APP, and no PS-1 or PS-2 (β-APP-only cells). Embryonic (E18) mouse primary fibroblasts derived from β-APP-null mice, expressing only small amounts of endogenous PS-1 and PS-2, were transfected with cDNAs for human PS-1 to produce cells expressing excess human over mouse PS-1 but no β-APP (PS-1-only cells). […]
Co-cultures of β-APP-only and PS-1-only cells were carried out in the presence and absence of Peptide 1-80 (0-3 μM). ^35S-GTPγS assays were carried out on extracts as a measure of G-protein activation. The Aβ produced in these co-culture extracts was determined by ELISA. […]
^35S-GTPγS Assays: Extract (100 μg of total protein) was mixed with an equal volume of GTPγS Buffer B (50 mM HEPES/NaOH pH 7.4, 40 μM GDP, 50 mM MgCl2, 100 mM NaCl) and reacted with 50 nM ^35S-GTPγS (1250 Ci/mmol, Perkin Elmer, Waltham, Mass.) for 60 min at RT. […] The agarose beads were suspended in scintillation fluid (CytoScint, ICN) (5 ml) and counted in a Beckman Coulter LS 6000 SC scintillation counter for 3 min.

Aβ production = assay: ELISA of Aβ produced in β-APP-only:PS-1-only co-culture extracts; type: cell-based, mouse; conditions: β-APP:PS-1 co-culture, Peptide 1-80 0-3 μM
Method: Co-cultures of β-APP-only and PS-1-only cells were carried out in the presence and absence of Peptide 1-80 (0-3 μM). ^35S-GTPγS assays were carried out on extracts as a measure of G-protein activation. The Aβ produced in these co-culture extracts was determined by ELISA.
ES-derived mouse cells (PS-1^−/−; PS-2^−/−) that expressed only small amounts of endogenous β-APP but no PS, were transiently transfected with cDNA for human β-APP to produce cells expressing excess human β-APP over mouse β-APP, and no PS-1 or PS-2 (β-APP-only cells). Embryonic (E18) mouse primary fibroblasts derived from β-APP-null mice, expressing only small amounts of endogenous PS-1 and PS-2, were transfected with cDNAs for human PS-1 to produce cells expressing excess human over mouse PS-1 but no β-APP (PS-1-only cells). The minigenes were co-transfected with PS-1 in the PS-only APP−/− fibroblasts to inhibit the endogenous mouse Gα under investigation in those cells. PS−/− ES cells were separately transfected with human β-APP cDNA (β-APP only cells) and the two types of cells were co-cultured for 24 hours. Cells were harvested and detergent-buffer extracts of the co-cultures were prepared. Determination of [^35S]GTPγS incorporation in these cultures was carried out in the presence and absence of each minigene: Aliquots each containing 100 μg total protein were reacted with ^35S-GTPγS and immunoprecipitation of each ^35S-GTPγS-treated extract was carried out with antibodies directed to the particular Gα under investigation. Specificity of binding of a particular Gα to PS-1 was established by blocking of GTPγS incorporation in the presence of the specific minigene inhibitor.
Co-culture of β-APP-only with PS-1-only cells was carried out as described above.
ELISA for the production of Aβ1-40 was carried out using sandwich ELISA kits (Biosource).

Molecule: CC(C)(C)n1nc(-c2ccc(Cl)cc2)c2c(N)ncnc21 [PP2]
- tyrosine kinase activity after mixing (tyrosine kinase activity; 10 nM PP2): inhibition

Molecule: CO[C@H]1[C@@H](OC)C[C@H](C)[C@@H](OC)C2=CC(=O)C=C(NC(=O)/C(C)=C/C=C\[C@H](OC)[C@@H](OC(N)=O)/C(C)=C/[C@@H]1C)C2=O [herbimycin A]
- increase in tyrosine kinase activity at 8-10 mins after mixing (tyrosine kinase activity; 10 μg/ml herbimycin A): completely inhibited

Molecule: Peptide 1-80: fusion construct of the water-soluble entire 80 amino acid NH2-terminal domain of PS-1
- G-protein (Gαo) activation, 35S-GTPγS assay (Gαo): inhibited by Peptide 1-80 in a dose-dependent manner
- Aβ production by ELISA (Aβ production): inhibited by Peptide 1-80 in a dose-dependent manner
